From ChEMBL document CHEMBL4422633, “Antioxidant-Inspired Drug Discovery: Antitumor Metabolite Is Formed in Situ from a Hydroxycinnamic Acid Derivative upon Free-Radical Scavenging” (J Med Chem, 2019)
pIC50: −log10 of the molar value. Calls of active or inactive are those of the source. No cut-off for these calls is given here.

Assays:
MCF7 [1] = assay: Cytotoxicity against human MCF7 cells assessed as combination index measured at ED50 at H2O2/pcm ratio of 0.625:1 in presence of H2O2 after 48 hrs by MTT assay; type: functional
HaCaT = assay: Cytotoxicity against human HaCaT cells assessed as reduction in cell viability after 72 hrs by MTT assay; type: cell-based
MCF7 [2] = assay: Cytotoxicity against human MCF7 cells assessed as combination index measured at ED75 at H2O2/pcm ratio of 2.5:1 in presence of H2O2 after 48 hrs by MTT assay; type: functional
NCI-H661 = assay: Cytotoxicity against human NCI-H661 cells assessed as reduction in cell viability after 72 hrs by MTT assay; type: functional, cell-based; details: NCI-H661, 72 h
MCF7 [3] = assay: Cytotoxicity against human MCF7 cells assessed as combination index measured at ED75 at H2O2/pcm ratio of 1.25:1 in presence of H2O2 after 48 hrs by MTT assay; type: functional
MCF7 [4] = assay: Cytotoxicity against human MCF7 cells assessed as combination index measured at ED90 at H2O2/pcm ratio of 0.625:1 in presence of H2O2 after 48 hrs by MTT assay; type: functional
[5] = Antioxidant activity assessed as hydroxyl radical scavenging activity by measuring inhibition of damage to 2-deoxy-D-ribose after 3 mins by TBA-based Fenton reaction assay; type: functional
[6] = Cytotoxicity against human NCI-H460/R cells transfected with MDR assessed as reduction in cell viability after 72 hrs by MTT assay; type: functional, cell-based; details: NCI-H460, 72 h
[7] = Stability in MeOH and H2O2 by HPLC-PDA assay; type: physicochemical
[8] = Cytotoxicity against mouse L5178B1 cells transfected with pHa MDR1/A retrovirus assessed as reduction in cell viability after 72 hrs by MTT assay; type: functional, cell-based; details: MDR1, 72 h
MCF7 [9] = assay: Cytotoxicity against human MCF7 cells assessed as combination index measured at ED75 at H2O2/pcm ratio of 0.625:1 in presence of H2O2 after 48 hrs by MTT assay; type: functional
MCF7 [10] = assay: Cytotoxicity against human MCF7 cells assessed as combination index measured at ED50 at H2O2/pcm ratio of 2.5:1 in presence of H2O2 after 48 hrs by MTT assay; type: functional
HeLa = assay: Cytotoxicity against human HeLa cells assessed as reduction in cell viability after 72 hrs by MTT assay; type: functional, cell-based
[11] = Cytotoxicity against mouse L5178 cells assessed as reduction in cell viability after 72 hrs by MTT assay; type: functional, cell-based; details: L5178, 72 h
A549 = assay: Cytotoxicity against human A549 cells assessed as reduction in cell viability after 72 hrs by MTT assay; type: functional, cell-based; details: A549, 72 h
MCF7 [12] = assay: Cytotoxicity against human MCF7 cells assessed as combination index measured at ED90 at H2O2/pcm ratio of 2.5:1 in presence of H2O2 after 48 hrs by MTT assay; type: functional
MCF7 [13] = assay: Cytotoxicity against human MCF7 cells assessed as reduction in cell viability after 72 hrs by MTT assay; type: functional, cell-based; details: MCF7, 72 h
MCF7 [14] = assay: Cytotoxicity against human MCF7 cells assessed as combination index measured at ED90 at H2O2/pcm ratio of 1.25:1 in presence of H2O2 after 48 hrs by MTT assay; type: functional
[15] = biological target: T1, Serine/threonine-protein kinase Chk1 (Homo sapiens) (UniProt O14757); assay: Inhibition of CHK1 phosphorylation at S345 in human MCF7 cells at 10 uM pretreated for 30 mins followed by 10 J/m'2 irradiation and measured after 1 hr by Western blot analysis; type: cell-based
T1 sequence (whole entry): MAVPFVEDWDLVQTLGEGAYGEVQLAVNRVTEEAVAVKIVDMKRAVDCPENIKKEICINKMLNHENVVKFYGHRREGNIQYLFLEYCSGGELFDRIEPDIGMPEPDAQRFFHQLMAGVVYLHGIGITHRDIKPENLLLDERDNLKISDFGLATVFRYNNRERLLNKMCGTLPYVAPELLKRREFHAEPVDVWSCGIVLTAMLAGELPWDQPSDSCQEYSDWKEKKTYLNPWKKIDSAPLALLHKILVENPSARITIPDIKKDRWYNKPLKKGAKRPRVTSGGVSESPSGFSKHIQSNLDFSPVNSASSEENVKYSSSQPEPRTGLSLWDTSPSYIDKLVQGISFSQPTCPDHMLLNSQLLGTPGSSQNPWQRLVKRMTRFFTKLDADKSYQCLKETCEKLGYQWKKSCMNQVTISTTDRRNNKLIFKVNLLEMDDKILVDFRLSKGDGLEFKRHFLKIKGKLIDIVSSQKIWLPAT

Liver = assay: Antioxidant activity in rat liver microsomes assessed as reduction in lipid peroxidation; type: functional, Microsome
[16] = biological target: Serine/threonine-protein kinase Chk2 (Homo sapiens) (UniProt O96017); assay: Inhibition of CHK2 phosphorylation at T68 in human MCF7 cells at 10 uM pretreated for 30 mins followed by 10 J/m'2 irradiation and measured after 1 hr by Western blot analysis; type: cell-based
Sequence of Serine/threonine-protein kinase Chk2 (Homo sapiens) (O96017 whole entry): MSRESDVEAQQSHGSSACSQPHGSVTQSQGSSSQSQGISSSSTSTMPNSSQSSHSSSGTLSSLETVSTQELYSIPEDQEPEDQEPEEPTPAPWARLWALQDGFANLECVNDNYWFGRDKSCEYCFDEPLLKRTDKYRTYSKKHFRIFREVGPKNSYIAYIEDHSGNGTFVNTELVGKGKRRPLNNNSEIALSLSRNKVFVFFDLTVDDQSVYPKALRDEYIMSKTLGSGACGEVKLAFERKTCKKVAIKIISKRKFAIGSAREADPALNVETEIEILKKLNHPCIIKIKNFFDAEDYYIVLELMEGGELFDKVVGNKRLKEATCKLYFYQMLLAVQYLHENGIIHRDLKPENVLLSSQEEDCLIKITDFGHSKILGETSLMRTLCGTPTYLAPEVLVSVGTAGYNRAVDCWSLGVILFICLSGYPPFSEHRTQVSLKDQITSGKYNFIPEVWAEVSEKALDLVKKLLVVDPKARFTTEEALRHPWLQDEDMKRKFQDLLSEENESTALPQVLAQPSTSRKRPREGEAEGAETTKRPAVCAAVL

NCI-H460 = assay: Cytotoxicity against human NCI-H460 cells assessed as reduction in cell viability after 72 hrs by MTT assay; type: functional, cell-based; details: NCI-H460, 72 h
SiHa = assay: Cytotoxicity against human SiHa cells assessed as reduction in cell viability after 72 hrs by MTT assay; type: functional, cell-based
MCF7 [17] = assay: Cytotoxicity against human MCF7 cells assessed as combination index measured at ED50 at H2O2/pcm ratio of 1.25:1 in presence of H2O2 after 48 hrs by MTT assay; type: functional
[18] = Drug metabolism assessed as methyl 3-(1-hydroxy-4-oxocyclohexa-2,5-dienyl)acrylate formation by reverse phase-HPLC and HPLC-MS analysis based Fenton reaction assay

Structure (SMILES): COC(=O)/C=C/c1ccc(O)cc1 [METHYL P-HYDROXYCINNAMATE]
- CI (MCF7 [1]): 1.06
- pIC50 (HaCaT): 3.51
- CI (MCF7 [2]): 0.6
- pIC50 (NCI-H661): 3.54
- CI (MCF7 [3]): 0.6
- CI (MCF7 [4]): 0.44
- pIC50 [5]: 3.46
- pIC50 [6]: 2.98
- Stability [7]: <= 92 hr
- pIC50 [8]: < 3.82
- CI (MCF7 [9]): 0.68
- CI (MCF7 [10]): 0.79
- pIC50 (HeLa): < 3.82
- pIC50 [11]: 3.90
- pIC50 (A549): 3.49
- CI (MCF7 [12]): 0.45
- pIC50 (MCF7 [13]): < 3.40
- CI (MCF7 [14]): 0.39
- inhibition [15]: inactive
- pIC50 (Liver): 6.40
- inhibition [16]: inactive
- pIC50 (NCI-H460): 3.92
- pIC50 (SiHa): < 3.82
- CI (MCF7 [17]): 0.93
- Drug metabolism [18]: Metabolite detected
